Where a name gives a salt, the structure may show the parent alone.
Target: CDK12/CycK (Homo sapiens, UniProt Q9NYV4)
Experiment: Inhibition of CDK12 (ADP-Glo kinase assay)
Format: biochemical
Settings: 60 nM CDK12/CycK, 30 minutes pre-incubation, 1 μM ATP, 0.5 μM RBER-IRStide substrate, 1 h at 25° C., read-out: CDK12/cyclin K IC50
Protocol: Assay buffer comprised 50 mM HEPES pH 7.5, 1 mM DTT, 20 mM MgCl2, 3 mM MnCl2, 3 μM Na3VO4 and 50 μg/ml PEG8000. Kinase reactions were carried out in 384-well Optiplates™ (PerkinElmer 6007299). Test compounds were dissolved & diluted in dimethyl sulfoxide (DMSO) and cross diluted into assay buffer with a final DMSO concentration of 1% (v/v) in the assay. Test compounds (or 1% DMSO in control and blank wells) were pre-incubated with 60 nM CDK12/CycK for 30 minutes. After this time 1 μM Adenosine-5′-triphosphate (ATP) and 0.5 μM RBER-IRStide substrate (ProQinase 0863-0000-1) were added to commence the kinase reaction. Incubations were carried out for 1 h at 25° C. with kinase activity determined using the ADP-Glo™ reagent from Promega according to the manufacturer's instructions. Light generated is proportional to kinase activity and measured using a luminometer (EnVision, PerkinElmer). The signal obtained in the blank wells (containing no kinase) was subtracted from all other wells and IC50 values were determined by fitting a sigmoidal curve to % inhibition of control versus Log10 compound concentration.

CDK12/CycK, sequence (Q9NYV4 whole entry): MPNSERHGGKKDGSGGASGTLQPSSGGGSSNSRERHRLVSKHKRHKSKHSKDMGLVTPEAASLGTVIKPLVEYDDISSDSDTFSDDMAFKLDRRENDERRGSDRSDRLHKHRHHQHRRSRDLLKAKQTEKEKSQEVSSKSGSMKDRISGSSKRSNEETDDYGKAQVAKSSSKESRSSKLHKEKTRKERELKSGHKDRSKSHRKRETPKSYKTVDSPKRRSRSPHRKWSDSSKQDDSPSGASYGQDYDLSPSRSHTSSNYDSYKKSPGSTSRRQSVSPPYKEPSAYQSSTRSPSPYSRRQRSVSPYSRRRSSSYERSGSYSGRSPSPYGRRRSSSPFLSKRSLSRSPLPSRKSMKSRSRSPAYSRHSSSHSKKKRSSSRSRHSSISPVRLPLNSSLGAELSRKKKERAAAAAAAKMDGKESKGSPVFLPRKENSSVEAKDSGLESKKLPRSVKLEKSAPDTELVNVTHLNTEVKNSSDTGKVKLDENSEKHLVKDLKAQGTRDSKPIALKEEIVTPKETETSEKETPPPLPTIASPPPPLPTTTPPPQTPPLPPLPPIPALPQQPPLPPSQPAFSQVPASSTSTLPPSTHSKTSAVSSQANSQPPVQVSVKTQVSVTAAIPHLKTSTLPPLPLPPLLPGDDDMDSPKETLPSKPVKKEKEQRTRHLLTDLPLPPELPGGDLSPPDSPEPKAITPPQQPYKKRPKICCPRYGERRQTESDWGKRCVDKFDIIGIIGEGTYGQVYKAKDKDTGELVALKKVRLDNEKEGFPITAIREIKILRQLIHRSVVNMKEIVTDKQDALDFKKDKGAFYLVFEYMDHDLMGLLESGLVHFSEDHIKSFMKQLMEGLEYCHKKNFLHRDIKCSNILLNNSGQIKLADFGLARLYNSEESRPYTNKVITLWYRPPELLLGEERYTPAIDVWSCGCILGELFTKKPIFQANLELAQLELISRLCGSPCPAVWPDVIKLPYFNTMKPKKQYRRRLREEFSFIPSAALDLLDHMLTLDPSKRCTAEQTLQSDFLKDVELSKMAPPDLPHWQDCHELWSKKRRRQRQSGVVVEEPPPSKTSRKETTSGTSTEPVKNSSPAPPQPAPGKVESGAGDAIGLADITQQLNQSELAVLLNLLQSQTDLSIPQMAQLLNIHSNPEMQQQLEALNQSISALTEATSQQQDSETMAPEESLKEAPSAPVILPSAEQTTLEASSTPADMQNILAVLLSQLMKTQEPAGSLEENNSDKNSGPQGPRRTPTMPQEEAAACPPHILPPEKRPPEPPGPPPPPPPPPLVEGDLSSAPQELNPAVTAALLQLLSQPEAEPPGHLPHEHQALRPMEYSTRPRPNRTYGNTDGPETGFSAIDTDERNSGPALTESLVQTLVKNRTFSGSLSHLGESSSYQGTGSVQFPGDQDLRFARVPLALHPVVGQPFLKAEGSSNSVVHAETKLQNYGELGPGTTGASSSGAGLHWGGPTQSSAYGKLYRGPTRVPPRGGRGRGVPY
CDK12/CycK, sequence (O75909 whole entry partner): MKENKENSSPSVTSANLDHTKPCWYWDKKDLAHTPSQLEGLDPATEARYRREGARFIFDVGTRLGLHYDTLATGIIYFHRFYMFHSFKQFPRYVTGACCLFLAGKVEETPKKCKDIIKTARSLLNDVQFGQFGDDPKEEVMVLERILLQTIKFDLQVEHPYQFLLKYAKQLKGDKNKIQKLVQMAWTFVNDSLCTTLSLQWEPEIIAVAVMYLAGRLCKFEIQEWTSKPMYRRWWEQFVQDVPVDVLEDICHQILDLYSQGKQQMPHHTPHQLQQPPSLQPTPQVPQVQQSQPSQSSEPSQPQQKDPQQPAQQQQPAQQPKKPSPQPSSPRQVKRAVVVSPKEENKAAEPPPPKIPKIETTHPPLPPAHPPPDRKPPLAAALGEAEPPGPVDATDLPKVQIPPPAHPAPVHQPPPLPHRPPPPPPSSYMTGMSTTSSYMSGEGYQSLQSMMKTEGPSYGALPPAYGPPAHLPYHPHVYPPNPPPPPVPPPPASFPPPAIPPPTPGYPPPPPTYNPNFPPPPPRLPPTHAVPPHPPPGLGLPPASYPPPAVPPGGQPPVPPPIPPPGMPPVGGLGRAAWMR

IC50 [nM]	Structure (SMILES)
< 100	Nc1cccc(-c2cc3c(-c4cnn5ncccc45)ccnc3[nH]2)c1 [Example 114, 3-(4-(Pyrazolo[1,5-b]pyridazin-3-yl)-1H-pyrrolo[2,3-b]pyridin-2-yl)aniline]
< 100	C=CC(=O)Nc1cccc(C(=O)Nc2cccc(-c3cc4c(-c5cnn6ncccc56)ccnc4[nH]3)c2)c1 [Example 115, 3-Acrylamido-N-(3-(4-(pyrazolo[1,5-b]pyridazin-3-yl)-1H-pyrrolo[2,3-b]pyridin-2-yl)phenyl)benzamide]
1000 to 30000	O=C(NCc1cc2c(-c3cnn4ncccc34)ccnc2[nH]1)C1CC1 [Example 116, N-((4-(Pyrazolo[1,5-b]pyridazin-3-yl)-1H-pyrrolo[2,3-b]pyridin-2-yl)methyl)cyclopropanecarboxamide]
1000 to 30000	CN(C)CC(=O)NCc1cc2c(-c3cnn4ncccc34)ccnc2[nH]1 [Example 117, 2-(Dimethylamino)-N-((4-(pyrazolo[1,5-b]pyridazin-3-yl)-1H-pyrrolo[2,3-b]pyridin-2-yl)methyl)acetamide Formate Salt]
1000 to 30000	O=S(=O)(NCc1cc2c(-c3cnn4ncccc34)ccnc2[nH]1)C1CC1 [Example 118, N-((4-(Pyrazolo[1,5-b]pyridazin-3-yl)-1H-pyrrolo[2,3-b]pyridin-2-yl)methyl)cyclopropanesulfonamide]
100 to 1000	CC(C)(C)OC(=O)N1CCC(c2cc3c(-c4cnn5ncccc45)ccnc3[nH]2)C1 (stereo not shown) [Example 119, tert-Butyl 3-(4-(pyrazolo[1,5-b]pyridazin-3-yl)-1H-pyrrolo[2,3-b]pyridin-2-yl)pyrrolidine-1-carboxylate]
< 100	c1cnn2ncc(-c3ccnc4[nH]c(C5CCNC5)cc34)c2c1 (stereo not shown) [Example 122, 3-[2-(pyrrolidin-3-yl)-1H-pyrrolo[2,3-b]pyridine-4-yl)pyrazolo[1,5-b]pyridazine]
< 100	C#CC(=O)Nc1ccc(C(=O)N2CCC(c3cc4c(-c5cnn6ncccc56)ccnc4[nH]3)C2)cc1 (stereo not shown) [Example 128, N-(4-(3-(4-(Pyrazolo[1,5-b]pyridazin-3-yl)-1H-pyrrolo[2,3-b]pyridin-2-yl)pyrrolidine-1-carbonyl)phenyl)propiolamide]
1000 to 30000	OCC(O)COc1cnn2ncc(-c3ccnc4[nH]ccc34)c2c1 (stereo not shown) [Example 131, 3-((3-(1H-Pyrrolo[2,3-b]pyridin-4-yl)pyrazolo[1,5-b]pyridazin-5-yl)oxy)propane-1,2-diol]
100 to 1000	Clc1cnc2[nH]ccc2c1-c1cnn2ncccc12 [Example 132, 3-(5-Chloro-1H-pyrrolo[2,3-b]pyridin-4-yl)pyrazolo[1,5-b]pyridazine]
1000 to 30000	CCn1cc(-c2ccnc3[nH]ccc23)nn1 [Example 133, 4-(1-Ethyl-1H-1,2,3-triazol-4-yl)-1H-pyrrolo[2,3-b]pyridine]
1000 to 30000	c1ccc(Cn2cc(-c3ccnc4[nH]ccc34)nn2)cc1 [Example 134, 4-(1-Benzyl-1H-1,2,3-triazol-4-yl)-1H-pyrrolo[2,3-b]pyridine]
1000 to 30000	COc1ccc(Cn2cc(-c3ccnc4[nH]ccc34)nn2)cc1 [Example 135, 4-(1-(4-Methoxybenzyl)-1H-1,2,3-triazol-4-yl)-1H-pyrrolo[2,3-b]pyridine]
1000 to 30000	c1cncc(Cn2cc(-c3ccnc4[nH]ccc34)nn2)c1 [Example 136, 4-(1-(Pyridin-3-ylmethyl)-1H-1,2,3-triazol-4-yl)-1H-pyrrolo[2,3-b]pyridine]
< 100	CN(C)C/C=C/C(=O)Nc1cccc(C(=O)N2CCC(c3cc4c(-c5cnn6ncccc56)ccnc4[nH]3)C2)c1 (stereo not shown) [Example 142, (E)-4-(Dimethylamino)-N-(3-(3-(4-(pyrazolo[1,5-b]pyridazin-3-yl)-1H-pyrrolo[2,3-b]pyridin-2-yl)pyrrolidine-1-carbonyl)phenyl)but-2-enamide]
< 100	C=CC(=O)N1CCC(C(=O)N2CCC(c3cc4c(-c5cnn6ncccc56)ccnc4[nH]3)C2)CC1 (stereo not shown) [Example 143, 1-(4-(3-(4-(Pyrazolo[1,5-b]pyridazin-3-yl)-1H-pyrrolo[2,3-b]pyridin-2-yl)pyrrolidine-1-carbonyl)piperidin-1-yl)prop-2-en-1-one]
